Assay results taken from patent publication US9670157B2, “Benzylamine derivatives” (KALVISTA PHARMACEUTICALS LIMITED, priority 2013, dated 2017).
Read-outs that look alike come from different tables or passages of the source.

Legend:
[1] = target: Human plasma kallikrein (Homo sapiens (Human), UniProt P03952); assay: Determination of the IC50 for Plasma Kallikrein; type: biochemical; details: read-out: IC50 (human PKal)
Procedure: Human plasma kallikrein (Protogen) was incubated at 37° C. with the fluorogenic substrate H-DPro-Phe-Arg-AFC and various concentrations of the test compound. Residual enzyme activity (initial rate of reaction) was determined by measuring the change in optical absorbance at 410 nm and the IC50 value for the test compound was determined.

[2] = target: Human KLK1 (Homo sapiens (Human), UniProt P06870); assay: Determination of the IC50 for KLK1; type: biochemical; details: 37° C., fluorogenic substrate H-DVal-Leu-Arg-AFC
Procedure: KLK1 inhibitory activity in vitro was determined using standard published methods (see e.g. Johansen et al., Int. J. Tiss. Reac. 1986, 8, 185; Shori et al., Biochem. Pharmacol., 1992, 43, 1209; Stürzebecher et al., Biol. Chem. Hoppe-Seyler, 1992, 373, 1025). Human KLK1 (Callbiochem) was incubated at 37° C. with the fluorogenic substrate H-DVal-Leu-Arg-AFC and various concentrations of the test compound. Residual enzyme activity (initial rate of reaction) was determined by measuring the change in optical absorbance at 410 nm and the IC50 value for the test compound was determined.

[3] = 37° C., fluorogenic substrate H-DPro-Phe-Arg-AFC

Sequence of Human plasma kallikrein (P03952 391-638): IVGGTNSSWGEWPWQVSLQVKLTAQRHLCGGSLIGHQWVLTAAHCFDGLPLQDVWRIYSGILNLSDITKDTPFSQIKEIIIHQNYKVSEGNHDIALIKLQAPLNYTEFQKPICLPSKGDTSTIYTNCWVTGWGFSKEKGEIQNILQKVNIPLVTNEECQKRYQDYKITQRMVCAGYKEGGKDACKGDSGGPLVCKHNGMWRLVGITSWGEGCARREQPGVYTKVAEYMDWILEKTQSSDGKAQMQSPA
Sequence of Human plasma kallikrein (P03952 20-390 partner): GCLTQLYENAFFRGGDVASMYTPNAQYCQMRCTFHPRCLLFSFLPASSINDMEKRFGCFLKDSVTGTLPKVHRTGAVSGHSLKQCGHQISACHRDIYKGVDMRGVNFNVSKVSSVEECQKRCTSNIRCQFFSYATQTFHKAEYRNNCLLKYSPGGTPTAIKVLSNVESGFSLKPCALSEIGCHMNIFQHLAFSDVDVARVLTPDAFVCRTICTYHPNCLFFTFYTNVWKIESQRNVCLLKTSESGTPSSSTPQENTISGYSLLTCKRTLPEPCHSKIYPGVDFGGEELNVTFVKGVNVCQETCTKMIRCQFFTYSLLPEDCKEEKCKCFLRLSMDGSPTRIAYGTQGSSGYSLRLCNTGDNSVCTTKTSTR
Sequence of Human KLK1 (P06870 25-262): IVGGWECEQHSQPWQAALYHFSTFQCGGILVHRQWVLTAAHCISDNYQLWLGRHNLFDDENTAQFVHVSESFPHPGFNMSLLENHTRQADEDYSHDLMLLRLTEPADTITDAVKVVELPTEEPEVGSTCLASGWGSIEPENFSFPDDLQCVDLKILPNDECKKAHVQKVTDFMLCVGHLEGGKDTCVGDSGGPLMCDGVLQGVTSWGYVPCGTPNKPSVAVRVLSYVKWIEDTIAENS

IC50 [1, 3] [µM]	IC50 [2] [µM]	Compound	IC50 [1] [µM]
0.038	> 10	CCn1c(C(=O)NCc2ccc(CN)cc2C)cc(C)c1Cc1ccc(Cn2cc(C)cn2)cc1 [Example 99, 1-Ethyl-4-methyl-5-[4-(4-methyl-pyrazol-1-ylmethyl)-benzyl]-1H-pyrrole-2-carboxylic acid 4-aminomethyl-2-methyl-benzylamide]	
2.32	> 10	CCn1c(C(=O)NCc2ccc(C3(N)CC3)cc2)cc(C)c1Cc1ccc(Cn2cc(C)cn2)cc1 [Example 100, 1-Ethyl-4-methyl-5-[4-(4-methyl-pyrazol-1-ylmethyl)-benzyl]-1H-pyrrole-2-carboxylic acid 4-(1-amino-cyclopropyl)-benzylamide]	
0.011	4.27	CCn1c(C(=O)NCc2c(C)cc(CN)cc2C)cc(C)c1Cc1ccc(Cn2cc(C)cn2)cc1 [Example 102, 1-Ethyl-4-methyl-5-[4-(4-methyl-pyrazol-1-ylmethyl)-benzyl]-1H-pyrrole-2-carboxylic acid 4-aminomethyl-2,6-dimethyl-benzylamide]	
0.694	> 10	Cc1cnn(Cc2ccc(Cn3cc(C(=O)NCc4ccc(C5(N)CC5)cc4)cn3)cc2)c1 [Example 103, 1-[4-(4-Methyl-pyrazol-1-ylmethyl)-benzyl]-1H-pyrazole-4-carboxylic acid 4-(1-amino-cyclopropyl)-benzylamide]	
0.03	> 10	Cc1cnn(Cc2ccc(Cn3cnc(C(=O)NCc4ccc(CN)cc4)c3)cc2)c1 [Example 104, 1-[4-(4-Methyl-pyrazol-1-ylmethyl)-benzyl]-1H-imidazole-4-carboxylic acid 4-aminomethyl-benzylamide]	
0.941	> 10	Cc1cnn(Cc2ccc(Cn3cnc(C(=O)NCc4ccc(C5(N)CC5)cc4)c3)cc2)c1 [Example 105, 1-[4-(4-Methyl-pyrazol-1-ylmethyl)-benzyl]-1H-imidazole-4-carboxylic acid 4-(1-amino-cyclopropyl)-benzylamide]	
0.002	> 10	Cc1cnn(Cc2ccc(Cn3cc(C(=O)NCc4ccc(CN)cc4C)cn3)cc2)c1 [Example 106, 1-[4-(4-Methyl-pyrazol-1-ylmethyl)-benzyl]-1H-pyrazole-4-carboxylic acid 4-aminomethyl-2-methyl-benzylamide]	
0.003	> 10	Cc1cnn(Cc2ccc(Cn3cnc(C(=O)NCc4ccc(CN)cc4C)c3)cc2)c1 [Example 107, 1-[4-(4-Methyl-pyrazol-1-ylmethyl)-benzyl]-1H-imidazole-4-carboxylic acid 4-aminomethyl-2-methyl-benzylamide]	
0.033	> 10	Cc1cnn(Cc2ccc(Cn3cc(C(=O)NCc4ccc(CN)cc4)nn3)cc2)c1 [Example 108, 1-[4-(4-Methyl-pyrazol-1-ylmethyl)-benzyl]-1H-[1,2,3]triazole-4-carboxylic acid 4-aminomethyl-benzylamide]	
0.005	> 10	Cc1cnn(Cc2ccc(Cn3cc(C(=O)NCc4ccc(CN)cc4C)nn3)cc2)c1 [Example 109, 1-[4-(4-Methyl-pyrazol-1-ylmethyl)-benzyl]-1H-[1,2,3]triazole-4-carboxylic acid 4-aminomethyl-2-methyl-benzylamide]	

Further lines, the compound ahead of its results:

Compound	IC50 [1, 3] [µM]	IC50 [2] [µM]	IC50 [1] [µM]
CCn1c(C(=O)NCc2ccc(CN)cc2)cc(C)c1Cc1ccccc1 [Example 77, 5-Benzyl-1-ethyl-4-methyl-1H-pyrrole-2-carboxylic acid 4-aminomethyl-benzylamide]	3.72	> 10	
CCCn1c(C(=O)NCc2ccc(CN)cc2)cc(C)c1Cc1ccccc1 [Example 78, 5-Benzyl-4-methyl-1-propyl-1H-pyrrole-2-carboxylic acid 4-aminomethyl-benzylamide]	4.13	> 10	
CC(C)NC(=O)c1ccc(Cn2cc(C(=O)NCc3ccc(CN)cc3)cn2)cc1 [Example 79, 1-(4-Isopropylcarbamoyl-benzyl)-1H-pyrazole-4-carboxylic acid 4-aminomethyl-benzylamide]	5.55	> 10	
Cc1c(C(=O)NCc2ccc(CN)cc2)cnn1Cc1csc(-c2ccccc2)n1 [Example 80, 5-Methyl-1-(2-phenyl-thiazol-4-ylmethyl)-1H-pyrazole-4-carboxylic acid 4-aminomethyl-benzylamide]	2.34	> 10	
Cc1nn(Cc2csc(-c3ccccc3)n2)cc1C(=O)NCc1ccc(CN)cc1 [Example 81, 3-Methyl-1-(2-phenyl-thiazol-4-ylmethyl)-1H-pyrazole-4-carboxylic acid 4-aminomethyl-benzylamide]	0.695	> 10	
NCc1ccc(CNC(=O)c2cnn(Cc3csc(-c4ccccc4)n3)c2C(F)(F)F)cc1 [Example 82, 1-(2-Phenyl-thiazol-4-ylmethyl)-5-trifluoromethyl-1H-pyrazole-4-carboxylic acid 4-aminomethyl-benzylamide]	0.488	> 8.66	
Cc1cnn(Cc2ccc(Cn3cc(C(=O)NCc4ccc(CN)cc4)cn3)cc2)c1 [Example 85, 1-[4-(4-Methyl-pyrazol-1-ylmethyl)-benzyl]-1H-pyrazole-4-carboxylic acid 4-aminomethyl-benzylamide]		> 8.51	0.011
Cc1cc(C)n(Cc2ccc(Cn3cc(C(=O)NCc4ccc(CN)cc4)cn3)cc2)n1 [Example 86, 1-[4-(3,5-Dimethyl-pyrazol-1-ylmethyl)-benzyl]-1H-pyrazole-4-carboxylic acid 4-aminomethyl-benzylamide]	0.007	> 10	
NCc1ccc(CNC(=O)c2cnn(Cc3ccc(C(=O)N4CCCCC4)cc3)c2)cc1 [Example 87, 1-[4-(Piperidine-1-carbonyl)-benzyl]-1H-pyrazole-4-carboxylic acid 4-aminomethyl-benzylamide]	5.48	> 10	
NC1(c2ccc(CNC(=O)c3cnn(Cc4ccc(Cn5ccccc5=O)cc4)c3)cc2)CC1 [Example 89, 1-[4-(2-Oxo-2H-pyridin-1-ylmethyl)-benzyl]-1H-pyrazole-4-carboxylic acid 4-(1-amino-cyclopropyl)-benzylamide]	0.226	> 10	
Cc1cc(C(=O)NCc2ccc(CN)cc2)c(C)n1Cc1ccc(Cn2ccccc2=O)cc1 [Example 90, 2,5-Dimethyl-1-[4-(2-oxo-2H-pyridin-1-ylmethyl)-benzyl]-1H-pyrrole-3-carboxylic acid 4-aminomethyl-benzylamide]		> 10	0.114
Cc1cc(CN)ccc1CNC(=O)c1cc(C)n(Cc2ccc(Cn3ccccc3=O)cc2)c1C [Example 91, 2,5-Dimethyl-1-[4-(2-oxo-2H-pyridin-1-ylmethyl)-benzyl]-1H-pyrrole-3-carboxylic acid 4-aminomethyl-2-methyl-benzylamide]	0.029	> 10	
CCn1c(C(=O)NCc2ccc(CN)cc2C)cc(C)c1Cc1ccc(Cn2ccccc2=O)cc1 [Example 92, 1-Ethyl-4-methyl-5-[4-(2-oxo-2H-pyridin-1-ylmethyl)-benzyl]-1H-pyrrole-2-carboxylic acid 4-aminomethyl-2-methyl-benzylamide]	0.04	10	
CCn1c(C(=O)NCc2ccc(C3(N)CC3)cc2)cc(C)c1Cc1ccc(Cn2ccccc2=O)cc1 [Example 93, 1-Ethyl-4-methyl-5-[4-(2-oxo-2H-pyridin-1-ylmethyl)-benzyl]-1H-pyrrole-2-carboxylic acid 4-(1-amino-cyclopropyl)-benzylamide]	2.85	> 10	
Cc1cc(CN)cc(C)c1CNC(=O)c1cc(C)n(Cc2ccc(Cn3ccccc3=O)cc2)c1C [Example 94, 2,5-Dimethyl-1-[4-(2-oxo-2H-pyridin-1-ylmethyl)-benzyl]-1H-pyrrole-3-carboxylic acid 4-aminomethyl-2,6-dimethyl-benzylamide]	0.011	10.9	
CCn1c(C(=O)NCc2c(C)cc(CN)cc2C)cc(C)c1Cc1ccc(Cn2ccccc2=O)cc1 [Example 95, 1-Ethyl-4-methyl-5-[4-(2-oxo-2H-pyridin-1-ylmethyl)-benzyl]-1H-pyrrole-2-carboxylic acid 4-aminomethyl-2,6-dimethyl-benzylamide]	0.016	3.9	
Cc1cnn(Cc2ccc(Cn3c(C)cc(C(=O)NCc4ccc(CN)cc4)c3C)cc2)c1 [Example 96, 2,5-Dimethyl-1-[4-(4-methyl-pyrazol-1-ylmethyl)-benzyl]-1H-pyrrole-3-carboxylic acid 4-aminomethyl-benzylamide]	0.063	> 10	
Cc1cnn(Cc2ccc(Cn3c(C)cc(C(=O)NCc4ccc(CN)cc4C)c3C)cc2)c1 [Example 97, 2,5-Dimethyl-1-[4-(4-methyl-pyrazol-1-ylmethyl)-benzyl]-1H-pyrrole-3-carboxylic acid 4-aminomethyl-2-methyl-benzylamide]	0.028	> 10	
Cc1cnn(Cc2ccc(Cn3c(C)cc(C(=O)NCc4ccc(C5(N)CC5)cc4)c3C)cc2)c1 [Example 98, 2,5-Dimethyl-1-[4-(4-methyl-pyrazol-1-ylmethyl)-benzyl]-1H-pyrrole-3-carboxylic acid 4-(1-amino-cyclopropyl)-benzylamide]	0.701	> 10	
